Experiments:
A375M melanoma cell line [1] = experiment: Adhesion assay: [51Cr]-A375M cells to vitronectin; assay type: cell-based, human; settings: 20 μM peptide
Method: (§1) RGD peptides were plated at a maximum concentration of 200 μM and a minimum concentration of 2 nM. For each RGD peptide sequence, linear peptides (A), cyclic peptides (B), and 4-[^19F]-fluorobenzoyl cyclic peptides (C) were assayed. Each RGD peptide concentration was performed in quadruplicate and each experiment was repeated twice.
(§2) Plastic 96-well plates (Falcon 3912; Becton Dickinson) were coated with 50 μl substrate (10 μg/ml laminin or 5 μg/ml vitronectin). The plates were incubated at 37° C. in an 8% CO2 atmosphere for 1 hour. Unbound protein was flicked off and the plates were washed with phosphate buffered saline (PBS) and blocked with bovine serum albumin (0.1% w/v BSA)/PBS/0.1% sodium azide) for 1 hour. The plates were then washed with PBS, placed on a bed of ice and 25 μl of peptide was added to the wells.
Sodium [^51Cr] chromate was purchased from Amersham International, UK. […]
25 μl (about 10,000 cells) were added to each quadruplicate well and the plates incubated at 37° C. in an 8% CO2 atmosphere for 1 hour. […] The radioactivity associated with each well was determined in a gamma counter (1261 Multigamma; Wallac, Sweden). Quadruplicate 25 μl samples of labeled cells were counted as 100% input values. To determine non-specific binding, the ability of cells to bind BSA-coated wells was also assessed. […]
The results were calculated as follows: [formula] […]

αvβ5 integrin = target: T1, αvβ5 integrin (Homo sapiens, UniProt P06756+P18084); experiment: ELISA: biotinylated vitronectin binding to captured soluble αvβ5-mFc in the presence of RGD peptides; settings: 20 μM peptide; 100% = signal without peptide
T1 construct: chimeras comprising the extracellular domain of αvβ3, αvβ5, α5β1, and αIIbβ3 linked to the Fc domain of either mouse IgG; purchased Celltech plc (supplied, no catalogue number); host or cells: unpurified hybridoma / tissue culture supernatant from secreting cells
T1 sequence (P06756 31-992 limits assumed): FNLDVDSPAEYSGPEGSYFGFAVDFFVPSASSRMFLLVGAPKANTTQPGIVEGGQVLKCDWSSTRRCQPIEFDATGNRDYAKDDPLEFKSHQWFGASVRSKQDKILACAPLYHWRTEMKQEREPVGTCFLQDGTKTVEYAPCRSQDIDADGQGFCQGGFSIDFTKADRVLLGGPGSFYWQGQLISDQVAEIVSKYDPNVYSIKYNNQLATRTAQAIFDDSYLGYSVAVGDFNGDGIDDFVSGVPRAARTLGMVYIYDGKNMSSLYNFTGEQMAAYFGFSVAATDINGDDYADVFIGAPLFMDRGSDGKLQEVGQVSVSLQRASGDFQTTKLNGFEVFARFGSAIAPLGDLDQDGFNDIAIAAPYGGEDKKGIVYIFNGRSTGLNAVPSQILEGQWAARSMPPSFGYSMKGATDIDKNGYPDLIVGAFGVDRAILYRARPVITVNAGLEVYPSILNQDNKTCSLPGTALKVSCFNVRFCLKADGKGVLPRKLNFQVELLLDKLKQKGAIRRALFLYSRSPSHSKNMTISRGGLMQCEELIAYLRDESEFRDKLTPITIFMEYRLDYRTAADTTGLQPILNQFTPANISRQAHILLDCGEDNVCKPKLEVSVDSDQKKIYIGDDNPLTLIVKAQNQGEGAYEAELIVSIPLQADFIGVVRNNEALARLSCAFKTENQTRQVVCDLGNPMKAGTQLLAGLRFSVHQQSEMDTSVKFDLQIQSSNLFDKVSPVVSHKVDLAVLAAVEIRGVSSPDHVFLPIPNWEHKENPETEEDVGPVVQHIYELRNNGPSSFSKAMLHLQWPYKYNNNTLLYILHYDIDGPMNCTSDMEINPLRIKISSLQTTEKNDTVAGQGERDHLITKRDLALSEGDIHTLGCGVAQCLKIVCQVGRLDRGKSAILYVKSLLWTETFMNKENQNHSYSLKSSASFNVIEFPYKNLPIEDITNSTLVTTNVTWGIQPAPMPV
T1 sequence (P18084 24-719 limits assumed): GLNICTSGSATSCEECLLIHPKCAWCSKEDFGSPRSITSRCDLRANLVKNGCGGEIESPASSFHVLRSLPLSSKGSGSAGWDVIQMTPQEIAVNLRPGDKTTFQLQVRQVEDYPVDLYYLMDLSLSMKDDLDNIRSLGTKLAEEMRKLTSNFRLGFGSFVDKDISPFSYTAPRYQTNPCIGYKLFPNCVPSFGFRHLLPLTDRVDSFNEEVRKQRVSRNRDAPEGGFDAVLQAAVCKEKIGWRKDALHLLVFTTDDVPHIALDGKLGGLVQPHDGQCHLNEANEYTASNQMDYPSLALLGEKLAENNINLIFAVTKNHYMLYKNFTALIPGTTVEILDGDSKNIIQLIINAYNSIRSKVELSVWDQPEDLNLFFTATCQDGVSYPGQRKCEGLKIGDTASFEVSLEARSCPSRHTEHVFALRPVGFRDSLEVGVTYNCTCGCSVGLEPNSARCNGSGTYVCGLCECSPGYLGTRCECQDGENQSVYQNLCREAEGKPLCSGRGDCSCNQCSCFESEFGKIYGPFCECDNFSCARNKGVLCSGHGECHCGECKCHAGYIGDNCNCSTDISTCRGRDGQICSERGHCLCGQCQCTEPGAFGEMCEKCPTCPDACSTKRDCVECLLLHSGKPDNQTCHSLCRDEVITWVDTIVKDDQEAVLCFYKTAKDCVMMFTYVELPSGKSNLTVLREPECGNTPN
Excerpt: Four different soluble integrins were supplied by Celltech plc. Soluble forms of αvβ3, αvβ5, α5β1, and αIIbβ3 integrin were generated by constructing chimeras comprising the extracellular domain of αvβ3, αvβ5, α5β1, and αIIbβ3 linked to the Fc domain of either mouse IgG (αvβ3-mFc, αvβ5-mFc, and αIIbβ3-mFc) or human IgG (α5β1-hFc) as described by Stephens et al., Cell Adhes. Commun., 7:377-390 (2000) and Coe et al., J. Biol. Chem., 276:35854-35866 (2001). Since the four soluble integrin chimeras were supplied either as purified proteins (αvβ3-mFc and α5β1-hFc) or as unpurified hybridoma supernatants (αIIbβ3-mFc and αvβ5-mFc), it was necessary to use two types of ELISAs. […] In one type of ELISA (FIGS. 2A and 2B), the immobilized component is a 50 kDa fragment of fibronectin. In the second type of ELISA (FIGS. 2C and 2D), the immobilized component is a goat anti-mFc antibody that is used to capture chimeric proteins so that the RGD binding site of the integrin is maximally exposed. Each three-sided box in FIG. 2 represents a single well of a 96-well plate, and the components are listed in the sequence of their addition to the assay. The immobilized component at the bottom of the well is bound to the well by electrostatic interactions.
To analyze the affinity and selectively of RGD peptides for αIIbβ3 and αvβ5, 96-well ELISA plates were coated with anti-murine Fc antibody at 5 μg/ml in PBS, 100 μl per well and left overnight at 4° C. The plates were washed with PBS using a Denley Wellwash 4 Mk 2. Washing was repeated twice with a 400 μl wash per well. 200 μl/well of blocking buffer was then added for 1 hour followed by a repeat washing with PBS. 100 μl of tissue culture supernatant from cells secreting soluble αIIbβ3-mFc or αvβ5-mFc, diluted 1:2 in conjugate buffer, was added to each well. Plates were incubated with shaking for 1 hour followed by two washes with PBS. 100 μl of an RGD peptide (at concentrations of 200, 20, and 2 μM), followed by either 100 μl of biotinylated fibrinogen (at 1 μg/ml in conjugate buffer) or 100 μl of biotinylated vitronectin (at 2 μg/ml in conjugate buffer) were added to each well and incubated for 2 hours with shaking. After incubation, the plates were washed with PBS as described above. 100 μl of neutravidin-peroxidase was added to each well and the plates were incubated for 30 minutes with shaking, followed by two washes with PBS. 100 μl of TMB substrate was added to each well and the plates were shaken during color development. Plates were read using a plate spectrophotometer at 630 nm.
Two negative and two positive controls were used in both types of ELISAs. For example, the negative controls were wells that contained 50 μl of an active control peptide, integrin, and biotinylated ligand or 50 μl of the active control peptide and 50 μl of buffer. These negative control wells typically develop little to no color. […] These wells typically develop the maximum amount of color.
FIGS. 3-6 illustrate the percent binding of the vitronectin, fibronectin, or fibrinogen ligand to αvβ5, α5β1, αIIbβ3, or αvβ3 integrin in the presence of RGD peptides (i.e., linear (A), cyclic (B), or 4-[^19F]-fluorobenzoyl cyclic (C)) at different concentrations, with 100% maximum signal being the signal obtained in the absence of the peptide.

A375M melanoma cell line [2] = experiment: Adhesion assay: [51Cr]-A375M cells to laminin; assay type: cell-based, human; settings: 200 μM peptide
Method: as §1, §2
Sodium [^51Cr] chromate was purchased from Amersham International, UK. The solution was made isotonic by the addition of 110 μl 10× Hanks buffered salt solution. 100 μl of this solution (3.7 MBq) was added to 5-10×10^6 cells in 500 μl of serum-containing growth medium. The suspension was incubated at 37° C. for 45 minutes with regular agitation to resuspend the cells. The cells were then washed and spun 3 times with serum-free E4 medium to remove any free [^51Cr]chromium. A trypan blue viability count was performed and the cells were diluted to the necessary volume in serum-free E4 medium (4×10^5 cells/ml).
25 μl (about 10,000 cells) were added to each quadruplicate well and the plates incubated at 37° C. in an 8% CO2 atmosphere for 1 hour. Unbound cells were flicked off and the plates were washed twice with PBS/BSA containing 1 mM CaCl2 and 0.5 mM MgCl2. The plates were dabbed dry and cut into individual wells. The radioactivity associated with each well was determined in a gamma counter (1261 Multigamma; Wallac, Sweden). Quadruplicate 25 μl samples of labeled cells were counted as 100% input values. To determine non-specific binding, the ability of cells to bind BSA-coated wells was also assessed. Data for these wells are referred to as background.
The results were calculated as follows: [formula] [formula] NMR Spectroscopy of RGD Peptides
The A375M and VUP melanoma cell lines were used with vitronectin and laminin as substrates. Peptides were titrated in 10-fold dilutions from 200 μM to 2 nM. All data were normalized to the absence of peptide, which corresponded to 100% adhesion. All titrations were performed in quadruplicate and each experiment was repeated at least twice.

In the case of RGDY(OMe)K [B7], the “adhesion of [51Cr]-A375M cells to vitronectin, normalized to absence of peptide (100%)” value (A375M melanoma cell line [1]) is reported as 72.79%±0.04%, the “vitronectin binding to αvβ5, % of the maximum signal” value (αvβ5 integrin) is reported as 32.8% and the “adhesion of [51Cr]-A375M cells to laminin, normalized to absence of peptide (100%)” value (A375M melanoma cell line [2]) is reported as 50.40%±1.24%.
